Laboratory results published in ChEMBL document CHEMBL1144706, “Antineoplastic agents. 558. Ampelocissus sp. cancer cell growth inhibitory constituents” (2008).
Converted amounts (≈) assume the structure as drawn.

Legend:
Assay type in all cases: functional
BXPC-3 = experiment: Growth inhibition of human BXPC3 cells
MCF7 = experiment: Growth inhibition of human MCF7 cells
SF-268 = experiment: Growth inhibition of human SF268 cells
NCI-H460 = experiment: Growth inhibition of human NCI-H460 cells
KM-20L2 = experiment: Growth inhibition of human KM20L2 cells
DU-145 = experiment: Growth inhibition of human DU145 cells
P388 = experiment: Growth inhibition of mouse P388 cells

| GI50 (BXPC-3) [µg/mL] | GI50 (MCF7) [µg/mL] | GI50 (NCI-H460) [µg/mL] | GI50 (DU-145) [ng/mL] | GI50 (P388) [µg/mL] | SMILES | GI50 (SF-268) [µg/mL] | GI50 (KM-20L2) [µg/mL] |
| --- | --- | --- | --- | --- | --- | --- | --- |
| 1.3 (≈ 1.95 µM) | 0.0022 (≈ 0.0033 µM) | 1 (≈ 1.5 µM) | 9.3 (≈ 0.0139 µM) |  | CCCCCCCCCCCC[C@@H](O)[C@H]1CC[C@H]([C@@H](C[C@H](O)CCCCCCCCCC(O)CCC2=CC(C)OC2=O)OC(C)=O)O1 (some centres undefined) [UVARIBONIN] | 1.4 (≈ 2.1 µM) | 0.0013 (≈ 0.00195 µM) |
| 7.3 (≈ 11.2 µM) | 0.12 (≈ 0.184 µM) | 0.2 (≈ 0.307 µM) | 6.5 (≈ 0.00998 µM) | 0.014 (≈ 0.0215 µM) | CCCCCCCCCCCC[C@@H](O)[C@H]1CC[C@H]([C@@H](C[C@H](O)CCCCCCCCCCCCC2=CC(C)OC2=O)OC(C)=O)O1 (some centres undefined) | 11.9 (≈ 18.3 µM) | 0.034 (≈ 0.0522 µM) |
| 0.3 (≈ 0.999 µM) | 0.3 (≈ 0.999 µM) | 0.52 (≈ 1.73 µM) | 330 (≈ 1.1 µM) |  | Cc1c(O)c(C=O)c(O)c(C(=O)CCc2ccccc2)c1O | 0.55 (≈ 1.83 µM) | 0.36 (≈ 1.2 µM) |
